Counter-ions that a name gives are not always drawn. Like-named read-outs stand apart in the source and are kept apart here.
Experiments:
Type in all cases: cell-based
Candida albicans SRI 523 = assay: agar disc diffusion assay, C. albicans; conditions: SRI523, 240 ug/disc, about 24 hr at 37° C., Mueller-Hinton agar, read-out: Diameter of the zone of inhibition, C. albicans
Method: (§1) The activity of the compounds is determined using the following assay. The compound is dissolved in DMSO at a concentration of 6 mg/ml and then diluted with water to a final concentration of 3 mg/ml in 50% DMSO (% DMSO was shown not to be inhibitory to the test organisms). An aliquot (0.08 ml) of each drug solution was transferred to filter paper discs (12.7 mm diameter, Scmeicherand Schuell) for use in the agar diffusion assay. The concentration of each drug on the filter paper disc was 240 ug/disc. The test organisms included the following: Gram-positive aerobes (Staphylococcus aureus SRI 1323, Streptococcus pneumoniae SRI 1167); Gram-negative aerobe (Proteus vulgaris SRI 180); and the yeast Candida albicans SRI 523. An agar disc diffusion assay was used to evaluate the antimicrobial activity of the test compounds. Briefly, cultures were prepared from 16-20 hr agar slant cultures by inoculating in physiological saline to a turbidity equivalent to a #0.5 McFarland turbidity standard for the bacteria and a #3 McFarland standard for C. albicans. The surface of Mueller-Hinton agar (15×100 mm plates, mm) were evenly inoculated with each standardized culture using a cotton swab. Filter paper discs containing the drug concentration listed above were then placed on the inoculated agar plates along with a disc containing the solvent used to dissolve each drug. The plates were incubated at 37° C. for about 24 hr and the diameters of the zones of inhibition measured with a vernier caliper. Positive control drugs consisted of streptomycin for use with the bacterial strains and 5-fluorocytosine for use with C. albicans. The positive control drugs were assayed as described above for the compounds of the present invention using the same concentration.

Proteus vulgaris SRI 180 = assay: agar disc diffusion assay, P. vulgaris; conditions: SRI180, 240 ug/disc, about 24 hr at 37° C., Mueller-Hinton agar, read-out: Diameter of the zone of inhibition, P. vulgaris
Method: as §1

[1] = tested on: Staphylococcus aureus SRI 1323; assay: agar disc diffusion assay, S. aureus; conditions: SRI1323, 240 ug/disc, about 24 hr at 37° C., Mueller-Hinton agar, read-out: Diameter of the zone of inhibition, S. aureus
Method: as §1

[2] = tested on: Streptococcus pneumoniae SRI 1167; assay: agar disc diffusion assay, S. pneumoniae; conditions: 240 ug/disc, about 24 hr at 37° C.; for zone of inhibition at 240 µg/disc: Streptococcus pneumoniae, SRI1167, Mueller-Hinton agar, read-out: Diameter of the zone of inhibition, S. pneumoniae
Method: as §1

[3] = tested on: microtubule cytoskeleton of cultured human CG neuroblastoma cells; assay: Antimicrotubule activity (tubulin immunofluorescence microscopy); conditions: Neuroblastoma cell, read-out: Concentration where microtubule destabilization occurs
Method: The compounds of the invention according to formula I are effective in destabilizing microtubules, thus are useful in treating certain neoplastic diseases. Indirect immunofluorescence microscopy using the monoclonal antibodies to tubulin is used herein to determine the activity of the compounds of this invention in promoting depolymerization of the microtubule cytoskeleton in cultured cells. The following assay was employed.
Cultured human CG neuroblastoma cells were seeded 1:3 from confluent cultures onto sterile 11×22 mm coverslips in 6 well tissue culture plates 16 hr prior to treatment. The following day, the tissue culture medium is removed and the cells are exposed to various concentrations of compounds of this invention in Krebs Ringer Hepes (KRH) buffer containing a final concentration of 0.5% DMSO as carrier. Incubations were performed at 37° C. in a humidified 5% CO2 atmosphere for 2 hr. After incubation, the cells were fixed in 3% TEM grade formaldehyde in PBS for 45 min at room temperature.
To visualize the effects of the compounds of the invention on the microtubule cytoskeleton, the cells were processed for tubulin immunofluorescence. Briefly, the cells were permeabilized in 0.5% Triton-X 100 in PBS for 5 min. The cells were washed 2× with PBS and aldehydes reduced using 0.5 mg/ml NaBH4 in PBS for 5 min. Subsequently, the cells were blocked for 10 min in 1.5% BSA and 1.5% nonfat dry milk in PBS (blocking solution, BS) for 10 min. The cells were then incubated for 30 min at 37° C. with the monoclonal antibody Tu27B which recognizes b-tubulin (dilution 1:20 in BS). Subsequently, the cells were washed 2× in PBS and once in BS. The cells were then incubated for 30 min at 37° C. with sheep antimouse IgG conjugated to FITC. After incubation, the cells were washed 2× in PBS and once in BS and incubated. for 30 min at 37° C. with rabbit antisheep IgG conjugated to FITC. The cells were rinsed in PBS, counterstained with Hoechst 33285 in PBS (1 μg/ml), and rinsed in PBS. The coverslips were mounted in 9:1 glycerol:PBS containing 1 mg/ml p-phenylenediamine and sealed with nail polish.
The cells were viewed using a Jenalumar epifluorescence microscope equipped with the proper filters for Fluorescein Isothiocyanate (FITC) excitation and emission. Lack of effect of a compound is evidenced by the presence of an intact microtubule network in interphase cells, or a mitotic spindle dividing cells. Antineoplastic compounds of the invention at effective doses result in the disapperance of microtubules in both interphase and mitotic cells.

[4] = 2 hr at 37° C., 0.5% DMSO in KRH

SMILES	zone of inhibition at 240 µg/disc (Candida albicans SRI 523) [mm]	zone of inhibition at 240 µg/disc (Proteus vulgaris SRI 180) [mm]	zone of inhibition at 240 µg/disc [1] [mm]	zone of inhibition at 240 µg/disc [2] [mm]	minimal effective concentration [3, 4] [µM]	other results
O=C(CCN1CCN(Cc2ccccc2)CC1)c1ccc(F)c(Br)c1 [Example 25, 1-(p-Fluoro-m-bromophenyl)-3-(4'-benzyl-1'-piperazinyl)-1-propanone dihydrochloride]	26	16	27.5	36.3		
O=C(CCN1CCN(C(=O)c2ccccc2C(F)(F)F)CC1)c1ccccc1F [Example 43, 1-(o-Fluorophenyl)-3-[4'-(o-trfuoromethylbenzoyl)-1'-piperazinyl]-1-propanone hydrochloride]	22.5	15.9	17.7	25.3		
O=C(CCN1CCN(Cc2ccccc2)CC1)c1ccc([N+](=O)[O-])cc1 [Example 5, 1-(p-Nitrophenyl)-3-(4'-benzyl-1'-piperazinyl)-1-propanone dihydrochloride]	17.6	17.3	22.8	29.9	4	
O=C(CCN1CCN(Cc2ccccc2)CC1)c1ccc(Nc2ccc([N+](=O)[O-])cc2[N+](=O)[O-])cc1 [Example 113, 1-(4"-[2'",4'"-Dinitrophenylamino]phenyl)-3-(4'-benzyl-1'-piperazinyl)-1-propanone dihydrochloride]						minimal effective concentration ([3]; 2 h): 20 µM
N#Cc1cccc(C(=O)CCN2CCN(Cc3ccccc3)CC2)c1 [Example 60, 1-(m-Cyanophenyl)-3-(4'-benzyl-1'-piperazinyl)-1-propanone dihydrochloride]					20	
O=C(CCN1CCN(Cc2cc(F)ccc2F)CC1)c1ccsc1 [Example 38, 1-(3"-Thienyl)-3-[4'-(2'",5'"-difluorobenzyl)-1'-piperazinyl]-1-propanone dihydrochloride]					20	
O=C(CCN1CCN(Cc2ccccc2)CC1)c1cc([N+](=O)[O-])c(Cl)s1 [Example 95, 1-(5"-Chloro-4"-nitro-2"-thienyl)-3-(4'-benzyl-1'-piperazinyl)-1-propanone dihydrochloride]					20	
O=C(CCN1CCN(Cc2ccccc2)CC1)c1conc1-c1ccccc1 [Example 112, 1-(3"-Phenylisoxazol-4"-yl)-3-(4'-benzyl-1'-piperazinyl)-1-propanone dihydrochloride]					20	
O=C(CCN1CCN(C(=O)c2c(F)cccc2F)CC1)c1ccccc1F [Example 41, 1-(o-Fluorophenyl)-3-[4'-(2",6"-difluorobenzoyl)-1'-piperazinyl]-1-propanone hydrochloride]					20	
N#Cc1ccc(C(=O)CCN2CCN(Cc3ccccc3)CC2)s1 [Example 85, 1-(5"-Cyano-2"-thienyl)-3-(4'-benzyl-1'-piperazinyl)-1-propanone dihydrochloride]					20	
O=C(CCN1CCN(Cc2ccccc2)CC1)c1ccc(F)c2ccccc12 [Example 21, 1-(4"-Fluoronaphth-1"-yl)-3-(4'-benzyl-1'-piperazinyl)-1-propanone dihydrochloride]	26.6	0	33.8	40.7	20	
O=C(CCN1CCN(Cc2ccccc2)CC1)c1ccc(C2CCCCC2)cc1 [Example 27, 1-(p-Cyclohexylphenyl)-3-(4'-benzyl-1'-piperazinyl)-1-propanone dihydrochloride]					20	
O=C(CCN1CCN(Cc2ccccc2)CC1)c1cccs1 [Example 7, 1-(2"-Thienyl)-3-(4'-benzyl-1'-piperazinyl)-1-propanone dihydrochloride]					20	
O=C(CCN1CCN(Cc2ccccc2)CC1)c1csc([N+](=O)[O-])c1 [Example 80, 1-(5"-Nitro-3"-thienyl)-3-(4'-benzyl-1'-piperazinyl)-1-propanone dihydrochloride]	14.5	13.8	17.2			Diameter of the zone of inhibition, S. pneumoniae (symbol) ([2]; zone too large to measure): +
O=C(CCN1CCN(C(c2ccccc2)c2ccc(Cl)cc2)CC1)c1ccc(Br)s1 (centres unmarked) [Example 78, 1-(5"-Bromo-2"-thienyl)-3-[4'-(1'"-p-chlorophenyl-1'"-phenylmethyl)-1'-piperazinyl]-1-propanone dihydrochloride]	15.2	14.5	16.2	19.7		

Source: patent US6306857A, “Methods for treating or preventing alzheimer's disease using substituted 1-aryl-3-piperazin-1'-yl propanones” (Molecular Geriatrics Corporation, priority 1999, dated 2001)
